pIC50: −log10 of the molar value. Like-named read-outs stand apart in the source and are kept apart here. One block for each molecule: values may come before it.
Assays:
[1] = target: T1, endogenous amyloid-β (Abeta) plaques in the 5XFAD brain lysate (Homo sapiens, UniProt P05067); experiment: HATCO assay (high-throughput amyloid Thioflavin competitive binding optical assay), thioflavin-T fluorescence readout; parameters: species or system 5XFAD mice; conditions: for pIC50: competition with thioflavin-T for Abeta in 5XFAD brain lysate, 384-well, 4-parameter fit
T1 construct: coexpressed five familial AD (FAD) and additively increase Abeta-42 production; from tissue; host or cells: midbrain lysate (supernatant) of 8-month-old 5XFAD transgenic mice
Text: However, when bound to Abeta plaque, its FL increases dramatically and results in a strong FL signal with a characteristically shifted λmax to approximately 485 nm. In view thereof, as opposed to existing methods that detect binding of the dye through increased fluorescence, the present methods identify amyloid-binding compounds through a lack of binding between the dye and the amyloid, as evidenced by attenuated fluorescence. […] Accordingly, in some embodiments, the method of screening includes combining the target compound(s) with a dye (e.g., Thioflavin-T) and endogenous amyloid (e.g., endogenous amyloid-β (Abeta) plaques in the 5XFAD brain lysate), then measuring the fluorescence of the combination. In some embodiments, the fluorescence of the combination is then compared to negative and/or positive control.
HATCO competitive binding study. […] To facilitate the generation of concentration-response curves, fluorescence at each data point was averaged on a compound-by-compound basis and plotted as a function of concentration. […] From this curve, IC50 values for each compound were calculated by fitting the data to a 4-parameter logistical model in the GraphPad software package.
Brain lysate preparation—Excised midbrains of 5XFAD (8-month-old) or wt mice (age-matched) were homogenized for 5 min in 200 μL of buffer comprised of 21.4 g sucrose, 5 mL of 1 M tris base, and 0.5 mL of 0.5 M EDTA/250 mL DPBS using the T-25 basic Ultra-Turrax homogenizer. Additional 100 μL aliquots of this buffer were then added to the homogenized sample and re-homogenized for 2 min until a total added volume of 800 μL was attained. The sample was diluted to 4 mL total volume using another buffer comprised of 5% BSA, and 0.03% Tween 20 in DPBS solution. Roche Complete protease inhibitor tablets were added to both buffers immediately prior to use (1 tablet/10 mL buffer). The sample was centrifuged at 16,000 g for 30 min at 4° C. Aliquots of the supernatant were stored at −80° C. until use.
HATCO HTS assay—To translate the assay initially performed on a cuvette to a 384-well format, the general protocol includes the following steps: A fresh stock solution of thioflavin-T was prepared in distilled and deionized water after passing through a micro filter. The concentration of […] was measured according to Beer's law with an extinction coefficient of 26,620 M^−1cm^−1 at 416 nm. The stock solution was stored in darkness using aluminum foil and kept at 4° C. throughout the assay. Unless stated, each assaying well contained 10 μM of thioflavin-T, 5 mg/mL of freshly isolated and homogenized brain lysate (5 μL) obtained from 5XFAD mice and with 30 μM of screening compounds. […] For the negative control, the wells contained the same components minus positive control. The protein concentration of brain lysate throughout the study was normalized. After equilibration for 10 min at room temperature, the FL signal of the sample was measured using a Biotek Synergy NEO plate reader at an emission lambda max of 485 nm using an excitation of 465 nm and the signals of the different conditions were analyzed. The final volume per well was 50 μL. All assays were performed using a single dose of screening compounds in triplicate.
Once the preliminary hit compounds were identified, a cross-screening protocol was employed to validate the hits with duplicated concentrations for each hit.

[2] = mouse, in vivo
Experimental: In the HPLC experiment, WT and 5XFAD mice (n=3, each) were injected with promethazine via the tail veins, and subsequently perfused 10 min or 4 h post-injection. Freshly isolated brains were homogenized to facilitate extraction and quantification via HPLC using the procedure we reported earlier.

[3] = system: Abeta plaques; experiment: Autoradiography of human brain tissues from Alzheimer's disease patients with [11C]promethazine PET probe; type: binding; conditions: human AD brain tissue sections soaked in probe in PBS; compared with a large excess of cold promethazine
Text: (A) Tissues ([…]) on glass slides were soaked in [^11C]promethazine PET probe diluted in PBS solution. (B) Tissues were soaked in the same solution as (A), albeit with the presence of a large excess of “cold” (unlabeled) promethazine, denoted as PMZ in the figure.

T1 sequence (P05067 672-713 limits assumed): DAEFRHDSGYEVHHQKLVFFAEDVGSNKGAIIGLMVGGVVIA

Molecule: 1,6,7,1′,6′,7′-Hexahydroxy-5,5′-diisopropyl-3,3′-dimethyl-[2,2′]binaphthalenyl-8,8′-dicarbaldehyde [VU0243640]
pIC50 [1]: 4.07

pIC50 [1]: 4.27
increase in promethazine retention in Aβ-burdened brains (5XFAD vs WT) ([2]; 5XFAD versus WT, 10 min): ~4 fold
level of promethazine measured in brain (mean) ([2]; 5XFAD, 10 min): 9.62 µg
original dose retained within the brain ([2]; 5XFAD, 10 min): 2%
original dose retained within the brain ([2]; 5XFAD, 240 min): 0.5%
level of promethazine measured in brain (mean) ([2]; 10 min): 2.57 µg
original dose retained within the brain ([2]; 10 min): 0.5%
original dose retained within the brain ([2]; 240 min): 0.01%
Molecule: CC(CN1c2ccccc2Sc2ccccc21)N(C)C (centres unmarked) [Promethazine, N,N-dimethyl-1-(10H-phenothiazin-10-yl)propan-2-amine]

FL signal of thioflavin-T at 485 nm was reduced ([1]; 100 μM): 4.4%
FL signal of thioflavin-T at 485 nm was reduced ([1]; 500 μM): 25.9%
FL signal of thioflavin-T at 485 nm was reduced ([1]; 2000 μM): 51%
Molecule: Oc1ccc(/C=C/c2cc(O)cc(O)c2)cc1 [Resveratrol, (E)-5-(4-hydroxystyryl)benzene-1,3-diol]

pIC50 [1]: 4.17
Molecule: O=C(O)c1cc(/N=N/c2ccc(S(=O)(=O)Nc3ccccn3)cc2)ccc1O [VU0243360, 2-Hydroxy-5-[4-(pyridine-2-ylsulfamoyl)-phenylazo]-benzoic acid]

Molecule: O=C1C(Cl)=C(Cl)C(=O)C(Cl)=C1Cl [VU0243635, 2,3,5,6-Tetrachloro-[1,4]benzoquinone]
pIC50 [1]: 4.04

pIC50 [1]: 4.13
Molecule: Nc1ccc(/N=N/c2ccccc2)c(N)n1 [VU0244402, 3-Phenylazo-pyridine-2,6-diamine]

pIC50 [1]: 4.21
Molecule: O=C(N/N=C/c1ccc([N+](=O)[O-])o1)c1cc([N+](=O)[O-])cc([N+](=O)[O-])c1O [VU0656139, 2-Hydroxy-3,5-dinitro-benzoic acid (5-nitro-furan-2-ylmethylene)-hydrazide]

binding to Abeta plaques by autoradiography [3]: bound to Abeta plaques
Molecule: CC(CN1c2ccccc2Sc2ccccc21)N(C)C (centres unmarked) [[^11C]promethazine]

— patent publication US12687540B2, “Amyloid-binding compounds and methods of use thereof” (Vanderbilt University, priority 2019, dated 2026)
